Measured values: US9447187B2, “Use of an anti-CD200 antibody for prolonging the survival of allografts” (Alexion Pharmaceuticals, Inc., priority 2011, dated 2016)
Where “and” joins values, the source holds several entries; their conditions need not be identical. Equal entries are not always repeated.

Test system: cardiac allograft (C57BL/6 to BALB/c mice)
Experiment: C57BL/6 to BALB/c fully MHC-mismatched mouse heart transplantation model (graft survival, pulsation)
Assay type: in vivo
Description: The studies described in this section examined graft survival in a C57BL/6 to BALB/c fully MHC-mismatched mouse heart transplantation model. Each experimental group included 4-6 animals. Some of the experimental groups were treated with antibodies. […] Antibody 4 is a control, murine monoclonal antibody that shares a variable region with Antibody 2. […]
An experiment was also performed to evaluate whether use of an anti-CD200 antibody can reduce the duration or amount of mycophenolate mofetil that is necessary to prolong the survival of an allograft in a recipient mammal. First, a pilot experiment was performed to determine the dose of, and duration of, mycophenolate mofetil required to prolong allograft survival in mice. As described in Example 3, these studies examined graft survival in a C57BL/6 to BALB/c fully MHC-mismatched mouse heart transplantation model. Each experimental group included five (5) animals. The three experimental groups were treated as follows:
Group 1-PE (pilot experiment): cardiac allograft-bearing mice were orally administered mycophenolate mofetil at a dose of 120 mg/kg each day of the study beginning at the time of transplant;
Group 2-PE: cardiac allograft-bearing mice were orally administered mycophenolate mofetil at a dose of 80 mg/kg each day of the study beginning at the time of transplant; and
Group 3-PE: cardiac allograft-bearing mice were orally administered FK-506 at a dose of 16 mg/kg for each day of the study beginning at the time of transplant. […]
(§1) As described in Example 3, these studies examined graft survival in a C57BL/6 to BALB/c fully MHC-mismatched mouse heart transplantation model. Each experimental group included five (5) animals. The five experimental groups were treated as follows: […]
as §1, with “The three” for “The five”, “as follows, with treatment beginning at the time of transplantation:” for “as follows:”

Compound	Individual Survival (FK-506 alone, 16 mg/kg orally each day of the study, 16 mg/kg)	Individual Survival (mycophenolate mofetil alone, 80 mg/kg orally each day of the study (pilot experiment), 80 mg/kg)	Mean Survival (mycophenolate mofetil alone, 80 mg/kg orally each day of the study (pilot experiment), listed as MMF, 80 mg/kg)	Individual Survival (mycophenolate mofetil alone, 120 mg/kg orally each day of the study (pilot experiment), 120 mg/kg)
C=CC[C@@H]1/C=C(\C)C[C@H](C)C[C@H](OC)[C@H]2O[C@@](O)(C(=O)C(=O)N3CCCC[C@H]3C(=O)O[C@H](/C(C)=C/[C@@H]3CC[C@@H](O)[C@H](OC)C3)[C@H](C)[C@@H](O)CC1=O)[C@H](C)C[C@@H]2OC [FK-506, tacrolimus]	23 days and 25 days (2×) and 26 days and 27 days	–	–	–
COc1c(C)c2c(c(O)c1C/C=C(\C)CCC(=O)OCCN1CCOCC1)C(=O)OC2 [mycophenolate mofetil]	–	18 days and 19 days and 20 days and 22 days (2×)	approximately 20.2 days	20 days and 21 days and 22 days and 23 days and 25 days
